Assay results published in patent publication US20080113955A1, “TREATMENT OF INFANT HYPERBIL[…] LOW DOSAGES OF STANNSOPORFIN” (priority 2006, published 2008).

How the values were obtained:
[1] = test system: infant hyperbilirubinemia; assay: Low-dose administration of stannsoporfin in infants with hyperbilirubinemia (all receiving phototherapy): serum bilirubin and need for exchange transfusion; assay type: in vivo, human; conditions: for # transfused pts (babies total received exchange transfusions): intramuscular, before or after treatment
Procedure: (§1) Low-dose administration of stannsoporfin was tested in a group of infants in Hanoi, Vietnam and Michigan, United States. The known and unknown risks of the proposed study intervention and the potential for direct and indirect benefit were discussed with each subject's parents or guardians. Written informed consent was obtained from a parent or guardian of each subject before enrollment in the study. The study protocol was conducted under the guidelines of current Good Clinical Practice as promulgated by the United States Food and Drug Administration and international regulatory bodies. The study was reviewed and approved by the Institutional Review Board of the William Beaumont Hospital, Royal Oak, Mich., and the Vietnamese Ministry of Health and the Ethics Review Board of the National Hospital for Pediatrics of Hanoi.
All infants received phototherapy to treat hyperbilirubinemia; thus, the group designated as “placebo” were treated with phototherapy, as were the other groups. The placebo group had 18 babies total. […] The 0.75 mg/kg stannsoporfin group had 19 babies total. […] The 1.5 mg/kg stannsoporfin group had 18 babies total. […] Treatment refers to either placebo injection or stannsoporfin injection; as previously indicated, all babies received phototherapy. The placebo used was normal physiological saline. Stannsoporfin was administered via intramuscular injection in sodium phosphate buffer at a concentration of 20 mg/ml. A vial containing 1.5 ml was used, where a dose based on birthweight of the infant and whether a 0.75 mg/kg or 1.5 mg/kg dose was withdrawn. (For example, a 5 kg birthweight baby treated at a dose of 1.5 mg/kg would receive 7.5 mg of stannsoporfin; thus, a volume of 0.375 ml from the 20 mg/ml solution would be used to provide this dose.) In the majority of cases, the infants were between 4 and 7 days of age at the time of either stannsoporfin administration or exchange transfusion. The results are shown in FIG. 1 and FIG. 2; infants receiving stannsoporfin injections who required exchange transfusions before or after treatment are not included in the data presented in FIG. 1 for any group, while babies in the stannsoporfin groups who required exchange transfusion are excluded from FIG. 2 and only babies in the placebo group that did receive exchange transfusion are included in FIG. 2.

[2] = Side effects / adverse events in the low-dose stannsoporfin infant study; assay type: in vivo, human
Procedure: as §1
All infants received phototherapy to treat hyperbilirubinemia; thus, the group designated as “placebo” were treated with phototherapy, as were the other groups. The placebo group had 18 babies total. […] The 0.75 mg/kg stannsoporfin group had 19 babies total. […] The 1.5 mg/kg stannsoporfin group had 18 babies total. […] Treatment refers to either placebo injection or stannsoporfin injection; as previously indicated, all babies received phototherapy. The placebo used was normal physiological saline. Stannsoporfin was administered via intramuscular injection in sodium phosphate buffer at a concentration of 20 mg/ml. A vial containing 1.5 ml was used, where a dose based on birthweight of the infant and whether a 0.75 mg/kg or 1.5 mg/kg dose was withdrawn. (For example, a 5 kg birthweight baby treated at a dose of 1.5 mg/kg would receive 7.5 mg of stannsoporfin; thus, a volume of 0.375 ml from the 20 mg/ml solution would be used to provide this dose.) In the majority of cases, the infants were between 4 and 7 days of age at the time of either stannsoporfin administration or exchange transfusion. […]

jaundiced infants = conditions: single dose of 6 umol/kg birthweight (4.5 mg/kg birthweight); cited from earlier work
[3] = 0.75 mg/kg group, 19 babies total
[4] = 1.5 mg/kg group, 18 babies total

tin (IV) mesoporphyrin IX dichloride [stannsoporfin]
# transfused pts (babies total received exchange transfusions) ([1]; 0.75 mg/kg birthweight, N = 19, plus phototherapy): 3
babies who did not receive an exchange transfusion [1, 3]: 16
babies who received an exchange transfusion after treatment [1, 3]: 1
% requiring transfusions ([1]; 0.75 mg/kg, N = 19): 16%
# transfused pts (babies total received exchange transfusions) ([1]; 1.5 mg/kg birthweight, N = 18, plus phototherapy): 2
babies who did not receive exchange transfusion [1, 4]: 16
babies who received an exchange transfusion after treatment [1, 4]: 2
% requiring transfusions ([1]; 1.5 mg/kg, N = 18): 11%
significance value P versus placebo, serum bilirubin ([1]; 1.5 mg/kg, at 24 hours, FIG. 1): < 0.05
significance value P versus placebo, serum bilirubin ([1]; 1.5 mg/kg, at 48 hours, FIG. 1): < 0.001
decrease in serum bilirubin compared with the exchange transfusion (placebo injection) group ([1]; 1.5 mg/kg, FIG. 2): greater than that for the exchange transfusion group at 3 of the 4 post-treatment data points
reduction of serum bilirubin versus placebo (phototherapy only) ([1]; both doses, 0.75 mg/kg and 1.5 mg/kg, babies who required exchange transfusions excluded, FIG. 1): greater reduction of serum bilirubin than the placebo group
percentage reduction in starting bilirubin levels ([1]; both stannsoporfin groups, 0.75 mg/kg and 1.5 mg/kg, babies without exchange transfusion, FIG. 2): substantial decrease in serum bilirubin
need for exchange transfusion ([1]; low-dose stannsoporfin (0.75 and 1.5 mg/kg) versus control): significantly decreased the need for exchange transfusion
adverse events considered probably or definitely related to the study treatment ([2]; all treatment groups): None
infants who experienced at least one adverse event ([2]; each treatment group): Greater than 60%
incidence, severity, seriousness, and causality of adverse events, differences among the three treatment groups ([2]; placebo, 0.75 mg/kg and 1.5 mg/kg groups): no statistically significant differences
need for phototherapy in jaundiced infants (jaundiced infants): could avoid the need for phototherapy
